According to ChEMBL document CHEMBL1138541, “Design, synthesis, and evaluation of benzophenone derivatives as novel acetylcholinesterase inhibitors” (Eur J Med Chem, 2009):

Key:
[1] = target: Cholinesterase (Homo sapiens, UniProt P06276); assay: Inhibition of human serum BChE by Ellman's method
[2] = target: Acetylcholinesterase (Homo sapiens, UniProt P22303); assay: Inhibition of human recombinant AChE by Ellman's method
Chain of Acetylcholinesterase (P22303 whole entry): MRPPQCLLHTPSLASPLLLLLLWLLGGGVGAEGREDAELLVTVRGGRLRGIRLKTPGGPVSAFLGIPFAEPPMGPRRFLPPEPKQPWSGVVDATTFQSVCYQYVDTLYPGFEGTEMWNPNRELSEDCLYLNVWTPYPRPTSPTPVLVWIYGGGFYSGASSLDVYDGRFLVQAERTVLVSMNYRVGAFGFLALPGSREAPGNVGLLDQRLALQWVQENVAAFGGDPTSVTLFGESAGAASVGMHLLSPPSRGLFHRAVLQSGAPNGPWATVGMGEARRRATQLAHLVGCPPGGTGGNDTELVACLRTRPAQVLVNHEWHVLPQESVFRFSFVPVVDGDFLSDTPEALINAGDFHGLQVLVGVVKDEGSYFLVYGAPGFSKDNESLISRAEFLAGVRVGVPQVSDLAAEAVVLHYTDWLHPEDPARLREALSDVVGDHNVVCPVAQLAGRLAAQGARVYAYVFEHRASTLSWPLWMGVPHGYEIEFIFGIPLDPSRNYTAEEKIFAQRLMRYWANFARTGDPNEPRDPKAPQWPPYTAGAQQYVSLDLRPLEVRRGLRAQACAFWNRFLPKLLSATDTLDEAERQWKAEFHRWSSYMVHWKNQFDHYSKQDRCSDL

Chain of Cholinesterase (P06276 whole entry): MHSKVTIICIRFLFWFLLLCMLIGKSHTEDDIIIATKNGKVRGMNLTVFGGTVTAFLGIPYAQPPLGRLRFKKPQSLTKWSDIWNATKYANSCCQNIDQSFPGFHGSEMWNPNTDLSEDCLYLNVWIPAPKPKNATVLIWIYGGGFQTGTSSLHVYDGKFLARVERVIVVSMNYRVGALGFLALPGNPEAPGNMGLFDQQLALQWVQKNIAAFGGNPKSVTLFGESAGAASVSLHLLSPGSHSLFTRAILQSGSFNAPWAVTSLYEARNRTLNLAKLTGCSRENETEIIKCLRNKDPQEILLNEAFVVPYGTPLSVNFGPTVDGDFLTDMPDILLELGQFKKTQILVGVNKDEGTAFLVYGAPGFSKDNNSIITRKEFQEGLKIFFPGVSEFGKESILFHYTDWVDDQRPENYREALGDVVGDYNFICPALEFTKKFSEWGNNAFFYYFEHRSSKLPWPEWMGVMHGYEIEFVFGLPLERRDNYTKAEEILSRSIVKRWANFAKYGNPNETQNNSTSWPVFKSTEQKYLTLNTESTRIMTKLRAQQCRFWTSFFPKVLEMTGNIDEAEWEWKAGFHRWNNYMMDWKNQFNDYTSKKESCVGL

| SMILES | IC50 [1] [µM] | IC50 [2] [µM] |
| --- | --- | --- |
| CCN(Cc1ccccc1)Cc1ccc(C(=O)c2ccc(OC)c(OC)c2)cc1 | 71.5 | 0.57 |
| COc1ccc(C(=O)c2ccc(CN(C)Cc3cccc(C)c3)cc2)cc1OC | 125 | 1.65 |
| COc1ccc(C(=O)c2ccc(/C=C/CN(C)Cc3ccccc3)cc2)cc1OC | 44 | 2.1 |
| COc1ccc(C(=O)c2ccc(CN(C)Cc3ccccc3)cc2)cc1F | > 100 | 1.57 |
| COc1ccc(C(=O)c2ccc(CN(C)Cc3cccc([N+](=O)[O-])c3)cc2)cc1OC | > 100 | 4.27 |
| COc1ccc(C(=O)c2ccc(CN(C)Cc3ccccc3)cc2)cc1OC | 60.7 | 0.46 |
| COc1ccc(C(=O)c2ccc(CN3CCOCC3)cc2)cc1OC | – | 345 |
| COc1ccc(C(=O)c2ccc(CN(C)CCN(C)C)cc2)cc1OC | 88.8 | 2.37 |
| C#CCN(C)Cc1ccc(C(=O)c2ccc(OC)c(OC)c2)cc1 | – | 27.2 |
| COc1ccc(C(=O)c2ccc(CN3CCc4ccccc4C3)cc2)cc1OC | – | 54 |
| CN(Cc1ccccc1)Cc1ccc(C(=O)c2ccc3ccccc3c2)cc1 | – | 19.6 |
| COc1ccc(C(=O)c2ccc(CN(CCN(C)C)Cc3ccccc3)cc2)cc1OC | 33.2 | 8.64 |
| COc1ccc(C(=O)c2ccc(CN(CCO)Cc3ccccc3)cc2)cc1OC | 172 | 1.41 |
| COc1ccccc1CN(C)Cc1ccc(C(=O)c2ccc(OC)c(OC)c2)cc1 | 16.2 | 3.71 |
| COc1ccc(C(=O)c2ccc(CN(C)Cc3ccccc3)cc2)cc1 | > 100 | 1.82 |
| CCN(CC)Cc1ccc(C(=O)c2ccc(OC)c(OC)c2)cc1 | – | 36.8 |
